{"source": "paper PMC10803289", "about": "“Transport and inhibition mechanism of the human SGLT2–MAP17 glucose transporter” (Nature Structural & Molecular Biology, 2023)", "key": {"SGLT1 and SGLT2": {"test_system": "SGLT1 and SGLT2", "conditions": "cited from earlier work; for subtype specificity of inhibition (SGLT1 vs SGLT2): in words"}, "hSGLT2 V95I": {"test_system": "hSGLT2 V95I", "set-up": "method as in PMID 34880493", "conditions": "cited from earlier work"}, "SGLT2": {"test_system": "SGLT2", "set-up": "method as in Hummel et al., Am. J. Physiol., Cell Physiol., 2011", "conditions": "authors' rebuttal in peer review file; ref Hummel et al., Am. J. Physiol., Cell Physiol., 2011; cited from earlier work"}, "SGLT1 T395A": {"test_system": "SGLT1 T395A", "set-up": "method as in PMID 30532032", "conditions": "replacement of T395 with Ala at the Na3 site; cited from earlier work"}, "[1]": {"target": "T1, wild-type hSGLT2 (membrane fraction of hSGLT2 and MAP17 expressing cells) (Homo sapiens, UniProt P31639)", "T1 construct": "expressed in transfected cells; host or cells: Expi293 cells, crude membrane fraction", "T1 sequence (P31639 1-672)": "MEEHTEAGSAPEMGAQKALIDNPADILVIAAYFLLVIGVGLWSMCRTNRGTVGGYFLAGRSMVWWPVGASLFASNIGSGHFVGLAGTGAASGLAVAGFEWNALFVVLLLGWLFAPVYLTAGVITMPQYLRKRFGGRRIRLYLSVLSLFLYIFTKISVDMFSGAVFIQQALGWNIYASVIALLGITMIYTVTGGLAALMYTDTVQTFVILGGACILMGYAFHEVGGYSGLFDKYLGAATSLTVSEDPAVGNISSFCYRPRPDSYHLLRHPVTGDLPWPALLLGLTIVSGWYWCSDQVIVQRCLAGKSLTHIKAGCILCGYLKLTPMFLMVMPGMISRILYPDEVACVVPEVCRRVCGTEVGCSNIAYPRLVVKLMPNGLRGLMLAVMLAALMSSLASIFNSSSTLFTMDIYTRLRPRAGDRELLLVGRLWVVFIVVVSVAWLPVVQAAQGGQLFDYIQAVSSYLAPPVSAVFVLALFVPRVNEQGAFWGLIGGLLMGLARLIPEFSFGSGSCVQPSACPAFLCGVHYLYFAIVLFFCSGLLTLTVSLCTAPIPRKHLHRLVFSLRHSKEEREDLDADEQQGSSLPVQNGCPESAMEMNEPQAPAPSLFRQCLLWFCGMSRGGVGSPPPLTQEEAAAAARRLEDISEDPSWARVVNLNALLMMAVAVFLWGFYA", "T1 sequence (Q13113 1-114 partner)": "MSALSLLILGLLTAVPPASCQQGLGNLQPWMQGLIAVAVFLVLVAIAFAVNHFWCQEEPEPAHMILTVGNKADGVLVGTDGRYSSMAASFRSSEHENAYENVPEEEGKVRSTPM", "assay": "SGLT2 inhibitor-binding assay via affinity selection–mass spectrometry, crude membrane, WT", "description": "(§1) To examine the inhibition of binding to the crude membrane, mammalian Expi293 cells were co-transfected with the hMAP17 and hSGLT2 plasmids, as described. The cells were collected and disrupted by sonication in a hypotonic buffer (50 mM HEPES–NaOH (pH 7.5), 10 mM KCl and protease inhibitor cocktail) or Na^+-free hypotonic buffer (50 mM Tris–HCl (pH 7.5), 10 mM KCl and protease inhibitor cocktail). The cell debris were removed by centrifugation (2,000g, 5 min, 4 °C). The membrane fraction was collected by ultracentrifugation (112,000g, 30 min, 4 °C) and stored at −80 °C before use. The crude membrane (250 μg per sample) was incubated with SGLT2 inhibitor in an assay buffer (100 mM NaCl and 10 mM HEPES/Tris, pH 7.4) or Na^+-free assay buffer (100 mM choline chloride and 10 mM HEPES/Tris, pH 7.4) at room temperature for 2 h. Reactions were terminated by filtration through a GF/C filter plate (Corning) presoaked in assay buffer containing 0.1% bovine serum albumin. The sample in the filter plate was washed three times with the assay buffer and eluted with acetonitrile: water (80:20, v/v). The extract solution from the filter plate was diluted with water containing candesartan as an internal standard, and the SGLT2 inhibitor concentration was quantified via LC–MS/MS.\n(§2) Nonspecific binding was measured using the crude membrane of nontransfected Expi293 cells. Specific binding was calculated by subtracting nonspecific binding from the binding of hSGLT2-expressing cells. Specific binding was normalized to hSGLT2 protein expression levels, measured via FSEC. The equilibrium dissociation constant (Kd) and maximum number of binding sites (Bmax) were calculated via nonlinear regression in GraphPad Prism 8.4.3. The specific binding of the hSGLT2 mutants was normalized to the Bmax of WT hSGLT2.\n(§3) The concentrations of the extract solution from the filter plate and of the cell lysate were quantified using a tandem mass spectrometry QTRAP6500 System (SCIEX) coupled with an ACQUITY UPLC system (Waters) using the internal standard method. Mobile phases A and B used 10 mM of ammonium bicarbonate and acetonitrile, respectively."}, "[2]": {"test_system": "nontransfected Expi293 cells (Mock)", "assay": "Nonspecific binding to crude membrane of nontransfected cells (Mock)", "set-up": "species or system human", "conditions": "Mock", "description": "as §1, §2, §3"}, "hSGLT2 S74A": {"target": "T2, hSGLT2 S74A (Homo sapiens, UniProt P31639, S74A)", "T2 construct": "expressed in transfected cells; host or cells: Expi293 cells, crude membrane fraction", "T2 sequence (P31639 whole entry S74A, one chain of several, the tested form may be a part)": "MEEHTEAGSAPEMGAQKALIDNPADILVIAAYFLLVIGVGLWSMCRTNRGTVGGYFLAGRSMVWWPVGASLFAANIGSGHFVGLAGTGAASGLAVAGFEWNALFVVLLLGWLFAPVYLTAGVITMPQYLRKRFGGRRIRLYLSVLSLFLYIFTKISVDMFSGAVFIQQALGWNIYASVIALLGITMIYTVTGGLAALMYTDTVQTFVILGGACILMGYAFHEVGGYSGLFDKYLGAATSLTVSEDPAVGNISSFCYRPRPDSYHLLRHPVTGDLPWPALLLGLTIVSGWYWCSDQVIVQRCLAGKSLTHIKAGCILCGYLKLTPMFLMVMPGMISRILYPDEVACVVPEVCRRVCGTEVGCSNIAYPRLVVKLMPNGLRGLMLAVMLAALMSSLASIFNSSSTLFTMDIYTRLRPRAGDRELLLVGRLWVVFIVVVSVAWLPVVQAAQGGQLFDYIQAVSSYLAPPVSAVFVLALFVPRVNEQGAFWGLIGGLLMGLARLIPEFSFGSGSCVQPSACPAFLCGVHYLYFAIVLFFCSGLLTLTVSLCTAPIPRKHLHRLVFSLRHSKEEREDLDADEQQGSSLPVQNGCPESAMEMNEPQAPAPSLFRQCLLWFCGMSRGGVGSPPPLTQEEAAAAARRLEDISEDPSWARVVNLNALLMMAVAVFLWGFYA", "type": "binding", "conditions": "S74A mutant", "description": "(§4) hSGLT2 complementary DNA and human MAP17 cDNA were synthesized and codon-optimized for expression in human cell lines. Both cDNAs were cloned into the pcDNA3.4 vector. The hSGLT2 sequence was fused with an N-terminal signal sequence from human trypsinogen 1, a His10 tag, and sfGFP, followed by a human rhinovirus 3C protease (HRV3C protease) recognition site. Point mutations were introduced into this construct using site-directed mutagenesis. These plasmids were utilized for all experimental procedures conducted in this study.\nTo examine the inhibition of binding to the crude membrane, mammalian Expi293 cells were co-transfected with the hMAP17 and hSGLT2 plasmids, as described. The cells were collected and disrupted by sonication in a hypotonic buffer (50 mM HEPES–NaOH (pH 7.5), 10 mM KCl and protease inhibitor cocktail) or Na^+-free hypotonic buffer (50 mM Tris–HCl (pH 7.5), 10 mM KCl and protease inhibitor cocktail). The cell debris were removed by centrifugation (2,000g, 5 min, 4 °C). The membrane fraction was collected by ultracentrifugation (112,000g, 30 min, 4 °C) and stored at −80 °C before use. […] The extract solution from the filter plate was diluted with water containing candesartan as an internal standard, and the SGLT2 inhibitor concentration was quantified via LC–MS/MS.\nas §2, with “The specific binding of the hSGLT2 mutants was normalized to the Bmax of WT hSGLT2.” left out\nThe concentrations of the extract solution from the filter plate and of the cell lysate were quantified using a tandem mass spectrometry QTRAP6500 System (SCIEX) coupled with an ACQUITY UPLC system (Waters) using the internal standard method. […]"}, "hSGLT2 D201A": {"target": "T3, hSGLT2 D201A (Homo sapiens, UniProt P31639, D201A)", "T3 sequence (P31639 1-672 D201A)": "T1 sequence (P31639 1-672) with D201A", "T3 sequence (Q13113 1-114 partner)": "T1 sequence (Q13113 1-114 partner)", "assay": "SGLT2 inhibitor-binding assay (AS-MS), crude membrane, D201A mutant", "set-up": "expressed in transfected cells; host or cells: Expi293 cells, crude membrane fraction", "conditions": "D201A mutant", "description": "as §4\nTo examine the inhibition of binding to the crude membrane, mammalian Expi293 cells were co-transfected with the hMAP17 and hSGLT2 plasmids, as described. […] The extract solution from the filter plate was diluted with water containing candesartan as an internal standard, and the SGLT2 inhibitor concentration was quantified via LC–MS/MS.\nas §2, with “The specific binding of the hSGLT2 mutants was normalized to the Bmax of WT hSGLT2.” left out"}}, "note": "Where a chain is given by its changes, count along the chain named. Values joined by “and” are separate entries in the source; they are usually repeats but may differ in a detail not shown here. Equal entries are not always repeated.", "data": [{"smiles": "OC[C@H]1O[C@@H](c2ccc(Cl)c(Cc3ccc(O[C@H]4CCOC4)cc3)c2)[C@H](O)[C@@H](O)[C@@H]1O", "note": "[empagliflozin]", "values": [{"measurement": "subtype specificity of inhibition (SGLT1 vs SGLT2)", "setting": "SGLT1 and SGLT2", "result": "SGLT2-specific inhibition"}, {"measurement": "effect of V95I on inhibitory activity", "setting": "hSGLT2 V95I", "result": "reduces the inhibitory activity"}]}, {"smiles": "CS[C@H]1O[C@@H](c2ccc(C)c(Cc3ccc(CCCC(=O)NC(C)(C)C(=O)NCCN(C)C)cc3)c2)[C@H](O)[C@@H](O)[C@@H]1O", "note": "[LX-2761]", "values": [{"measurement": "subtype specificity of inhibition (SGLT1 vs SGLT2)", "setting": "SGLT1 and SGLT2", "result": "dual inhibitors"}]}, {"smiles": "OC[C@H]1OC(O)[C@H](O)[C@@H](O)[C@@H]1O", "note": "(stereo partly shown) [glucose]", "values": [{"measurement": "Michaelis constant", "setting": "SGLT2", "result": 5, "unit": "mM"}, {"measurement": "reduction in glucose affinity", "setting": "SGLT1 T395A", "result": "more than 30 fold"}]}, {"smiles": "CCOc1ccc(Cc2cc([C@@H]3O[C@H](CO)[C@@H](O)[C@H](O)[C@H]3O)ccc2Cl)cc1", "note": "[Dapagliflozin]", "values": [{"measurement": "Binding (% of hSGLT2)", "setting": "[1]; 10 nM dapagliflozin", "result": "83.4507 % of hSGLT2 and 95.0704 % of hSGLT2 and 121.479 % of hSGLT2"}, {"measurement": "Binding (% of hSGLT2)", "setting": "[2]; 10 nM dapagliflozin", "result": "2.53 % of hSGLT2 and 3.518 % of hSGLT2 and 3.481 % of hSGLT2"}, {"measurement": "fold difference in inhibition between SGLT1 and SGLT2", "setting": "SGLT1 and SGLT2", "result": "more than 1,000 fold"}, {"measurement": "subtype specificity of inhibition (SGLT1 vs SGLT2)", "setting": "SGLT1 and SGLT2", "result": "SGLT2-specific inhibition"}]}, {"smiles": "O=C(CCc1ccc(O)cc1)c1c(O)cc(O)cc1O", "note": "[Phloretin]", "values": [{"measurement": "phloretin binding (in words)", "setting": "[1]; WT", "result": "binds as effectively as phlorizin"}, {"measurement": "Bmax", "setting": "[1]; phloretin, WT, mean ± SEM n=4", "result": "51.7 ± 3.46", "unit": "pmol/mg-protein"}, {"measurement": "Kd", "setting": "[1]; phloretin, WT, mean ± SEM n=4", "result": "12000 ± 1900", "unit": "nM"}, {"measurement": "phloretin binding (in words)", "setting": "hSGLT2 S74A", "result": "not"}, {"measurement": "phloretin binding (in words)", "setting": "hSGLT2 D201A", "result": "not"}]}, {"smiles": "CCOc1ccc(Cc2cc([C@@H]3O[C@H](SC)[C@@H](O)[C@H](O)[C@H]3O)ccc2Cl)cc1", "note": "[Sotagliflozin]", "values": [{"measurement": "Binding (% of hSGLT2)", "setting": "[1]; 50 nM sotagliflozin", "result": "96.1006 % of hSGLT2 and 97.9874 % of hSGLT2 and 105.912 % of hSGLT2"}, {"measurement": "Binding (% of hSGLT2)", "setting": "[2]; 50 nM sotagliflozin", "result": "19.1195 % of hSGLT2 and 17.8616 % of hSGLT2 and 17.9874 % of hSGLT2"}, {"measurement": "subtype specificity of inhibition (SGLT1 vs SGLT2)", "setting": "SGLT1 and SGLT2", "result": "dual inhibitors"}]}, {"smiles": "OC[C@H]1O[C@@H](n2cc(Cc3ccc(C4CC4)cc3)c3c(F)cccc32)[C@H](O)[C@@H](O)[C@@H]1O", "note": "[TA-1887]", "values": [{"measurement": "Binding (% of hSGLT2)", "setting": "[1]; 10 nM TA-1887", "result": "96.8051 % of hSGLT2 and 101.597 % of hSGLT2"}, {"measurement": "Bmax", "setting": "[1]; Na(+), mean ± SEM n=3", "result": "4.67 ± 0.49", "unit": "pmol/mg-protein"}, {"measurement": "Kd", "setting": "[1]; Na(+), mean ± SEM n=3", "result": "115 ± 28", "unit": "nM"}, {"measurement": "Bmax", "setting": "[1]; Na(-), mean ± SEM n=3", "result": "0.705 ± 0.155", "unit": "pmol/mg-protein"}, {"measurement": "Kd", "setting": "[1]; Na(-), mean ± SEM n=3", "result": "86.4 ± 50", "unit": "nM"}, {"measurement": "Bmax in the absence versus the presence of Na+ (in words)", "setting": "[1]; absence vs presence of Na+", "result": "partially lower"}, {"measurement": "Binding (% of hSGLT2)", "setting": "[2]; 10 nM TA-1887", "result": "13.0351 % of hSGLT2 and 13.9457 % of hSGLT2 and 14.6645 % of hSGLT2"}, {"measurement": "subtype specificity of inhibition (SGLT1 vs SGLT2)", "setting": "SGLT1 and SGLT2", "result": "SGLT2-specific inhibition"}]}]}
